The values below come from patent US9499529B2 (California State University Fresno, priority 2013, dated 2016).

Data set [1] deals with DU-145 prostate cancer cells. As to the kind of experiment: In vitro cytotoxicity against DU-145 prostate cancer cells. It is filed as cell-based, human. Particulars: DU-145 cells; for IC50: five days. On the procedure:
(§1) The half maximal inhibitory concentration (IC50) is a measure of the effectiveness of a substance in inhibiting a specific biological or biochemical function. It is commonly used as a measure of antagonist drug potency.
Cell numbers were counted with a cell viability analyzer (Beckman-Coulter).
(§2) A preliminary dose response curve was prepared from the collected data by means well known to those of ordinary skill in the art.
(§3) The six different concentrations fell within a selected linear concentration range determined by reference to the preliminary dose response curve and efforts to estimate the concentration at which 50% of the cell growth would be inhibited. The selected six different concentrations were used to further fill out the dose response curve to pinpoint a more exact IC50 value.

In data set [2] the test system is PC-3 prostate cancer cells. Kind of data set: In vitro cytotoxicity against PC-3 prostate cancer cells. It is filed as cell-based, human. Particulars: PC-3 cells; for IC50: five days. On the procedure:
as §1
Cell cultures were maintained in 5% carbon dioxide at a temperature of 37° C. […] Cell numbers were counted with a cell viability analyzer (Beckman-Coulter). […] A preliminary dose response curve was prepared from the collected data by means well known to those of ordinary skill in the art.
as §3

The subject of data set [3] is HeLa cervical cancer cells. Kind of data set: HeLa cell viability after treatment with analog (cell count, cell viability analyzer). Particulars: for viability at 1 µM / viability at 10 µM: Homo sapiens, HeLa, 72 h, read-out: HeLa Cell viability after treatment with analog (% viability). The data set is classed as cell-based, human. As for the experimental part: Cell numbers were counted with a cell viability analyzer (Beckman-Coulter). The ratio of drug treated viable cell numbers to control vehicle (DMSO) treated viable cell numbers was defined as percentage viability. […] Compound nos.
The HeLa cells used in the experiments summarized by Table 5 were cultured in RPMI-1640 medium supplemented with 10% FBS, 4 mM glutamine, 1 mM sodium pyruvate, 100 IU/mL penicillin, 100 ug/mL streptomycin and 0.25 ug/mL amphotericin. The HeLa cells were plated in 24-well plates at a density of 20,000 cells in each well in 10% FBS RPMI-1640. […] Cell numbers were counted with a cell viability analyzer (Beckman-Coulter). […]

For data set [4], the system named is HeLa cervical cancer cells. Kind of data set: In vitro cytotoxicity against HeLa cervical cancer cells. It is filed as cell-based, human. Particulars: for IC50: three days. On the procedure: as §1
(§4) Cell numbers were counted with a cell viability analyzer (Beckman-Coulter). The ratio of drug treated viable cell numbers to vehicle treated viable cell numbers was defined as percentage viability.
as §2, §3

The test system of data set [5] is PC-3 prostate cancer cell line. Particulars: cited from earlier work.
The test system of data set [6] is MCF-10A normal mammary epithelial cells. As to the kind of experiment: Cytotoxicity towards non-cancerous MCF-10A cells (FIG. 9). The data set is classed as cell-based. Particulars: for cytotoxicity towards MCF-10A normal mammary epithelial cells (in words): 0.1 μM, and 0.01 μM. As for the experimental part: The MCF-10A normal mammary epithelial cells were cultured in RPMI-1640 medium supplemented with 10% FBS, 4 mM glutamine, 1 mM sodium pyruvate, 100 IU/mL penicillin, 100 ug/mL streptomycin and 0.25 ug/mL amphotericin. The MCF-10A cells were plated in 24-well plates at a density of 20,000 each well in 10% FBS RPMI-1640 or DMED medium. […] Cell numbers were counted with a cell viability analyzer (Beckman-Coulter).

Data set [7] concerns A549 non-small cell lung cancer cells. As to the kind of experiment: In vitro cytotoxicity toward A549 cells. The data set is classed as cell-based. Particulars: Homo sapiens, 120 h, between three and five days, read-out: IC50 (analog).
Source text: as §4

Data set [8] has as its system MDA-MB-231 breast cancer cells. Kind of data set: In vitro cytotoxicity toward MDA-MB-231 cells. The data set is classed as cell-based. Particulars: Homo sapiens, 120 h, five days, read-out: IC50 (analog).
Source text: as §4

Where [9] appears, read: 1 μM, three days, relative to DMSO vehicle.
The mark [10] stands for this setting: 10 μM, three days, relative to DMSO vehicle.

For `Cc1cc(/C=C2\CCC/C(=C\c3cc(C)on3)C2=O)no1` [Compound 8, (2E,6E)-2,6-Bis((5-methylisoxazol-3-yl)methylene)cyclohexanone], the IC50 came out at 34 nM in data set [1], 140 nM in data set [2] and 205 nM in data set [4]. Moreover, in data set [3] (10 µM), the “HeLa Cell viability after treatment with analog (% viability)” value turned out to be 12.8%.
For the molecule `COc1cc(/C=C/C(=O)/C=C/c2ccc(O)c(OC)c2)ccc1O` [FLLL11], in data set [5], the “potency towards PC-3 prostate cancer cell line relative to curcumin” value is “more potent than curcumin”.
Turning to `CN1CC(=Cc2cscn2)C(=O)C(=Cc2cscn2)C1` [Compound 6], the “IC50 (curcumin)/IC50 (analog)” value in [1] stood at 0.7; in data set [2], 2.5; in data set [4] it was 13. Further, the IC50 worked out at 430 nM in data set [1], 800 nM in [2] and 817 nM in [4]. The “HeLa Cell viability after treatment with analog (% viability)” value in data set [3] (setting [9]) is listed as 72.0%; in [3] (setting [10]) it was 12.0%.
Turning to `Cc1cc(/C=C/C(=O)/C=C/c2cc(C)on2)no1` [Compound 27], the IC50 in [1] amounted to 42 nM; in data set [2], 250 nM; in data set [4] it was 296 nM. The “IC50 (curcumin)/IC50 (analog)” value in data set [2] is recorded as 7.9. For the same molecule, the figures for the “HeLa Cell viability after treatment with analog (% viability)” value in data set [3] (setting [9]) and in data set [3] (setting [10]) were 48% and 15.9%, respectively.
As to `CC(C)Cn1ccnc1/C=C/C(=O)/C=C/c1nccn1CC(C)C` [Compound 22], the IC50 came to 57 nM in data set [1], 46 nM in data set [2] and 430 nM in [4]. Besides, the entries for the “HeLa Cell viability after treatment with analog (% viability)” value in data set [3] (setting [9]) and in [3] (setting [10]) were 34.1% and 23.1%, respectively. For the same molecule, the “IC50 (curcumin)/IC50 (analog)” value in [4] turned out to be 24. The “survival of MCF-10A cells” value in data set [6] (0.01 μM, five days, FIG. 9) was 100%; in [6] (0.1 μM, five days, FIG. 9), “about 85%”; in [6] (1 μM, five days, FIG. 9), “about 85%”. In addition, the “cytotoxicity towards MCF-10A normal mammary epithelial cells (in words)” value in data set [6] (1 μM, FIG. 9) is reported as “no apparent cytotoxicity”.
Regarding `CCC(C)n1ccnc1/C=C/C(=O)/C=C/c1nccn1C(C)CC` (stereo not drawn) [Compound 21], the values for the IC50 in data set [1], in [2] and in data set [4] were 35 nM, 63 nM and 654 nM, respectively. For the same molecule, the “HeLa Cell viability after treatment with analog (% viability)” value in data set [3] (setting [9]) is 81.8%; in [3] (setting [10]), 17.7%. Besides, in data set [4], the “IC50 (curcumin)/IC50 (analog)” value is on record as 16. The “survival of MCF-10A cells” value is 100% in [6] (0.01 μM, five days, FIG. 9); “about 90%” in data set [6] (0.1 μM, five days, FIG. 9); “about 80%” in [6] (1 μM, five days, FIG. 9). Moreover, the “cytotoxicity towards MCF-10A normal mammary epithelial cells (in words)” value in data set [6] (1 μM, FIG. 9) was “no apparent cytotoxicity”.
For the molecule `Cc1cc(/C=C2\CCC/C(=C\c3cc(C)on3)C2=O)no1` [Compound 18, (2E,6E)-2,6-Bis((5-methylisoxazol-3-yl)methylene)cyclohexanone], the results for the IC50 in [1], in data set [2] and in data set [4] were 70 nM, 71 nM and 552 nM, respectively. In addition, the viability at 1 µM in [3] came out at 32%. The viability at 10 µM in [3] was determined as 15.9%. Also, the “IC50 (curcumin)/IC50 (analog)” value in data set [4] is 19.
Regarding `COc1cc(/C=C/C(=O)/C=C/c2cc(OC)c(O)c(OC)c2)cc(OC)c1O` [FLLL12], the “potency towards PC-3 prostate cancer cell line relative to curcumin” value in data set [5] is listed as “more potent than curcumin”.
As for `CC(C)n1ccnc1/C=C/C(=O)/C=C/c1nccn1C(C)C` [Compound 20], the values for the IC50 in data set [1], in [2] and in data set [4] were 54 nM, 89 nM and 418 nM, respectively. Besides, the “HeLa Cell viability after treatment with analog (% viability)” value in data set [3] (setting [9]) came to 35%; in data set [3] (setting [10]), 11.4%. Also, in [4], the “IC50 (curcumin)/IC50 (analog)” value was 25.
As to `COc1cc(/C=C/C(=O)CC(=O)/C=C/c2ccc(O)c(OC)c2)ccc1O` [curcumin, reference compound], the IC50 in data set [1] (Homo sapiens, DU-145, 120 h) came out at 300 nM; in data set [7], 15000 nM; in [8], 880 nM; in data set [2] (Homo sapiens, PC-3, 120 h), 1980 nM; in [4] (Homo sapiens, HeLa, 72 h) it was 10500 nM. Besides, in data set [3], the viability at 1 µM was 100%. Further, the viability at 10 µM in data set [3] was determined as 42.5%. The “survival of MCF-10A cells” value in data set [6] (human, 5 days, 0.01 µM) is reported as 100%; in [6] (human, 5 days, 0.1 µM), “about 95%”; in data set [6] (human, 5 days, 1 µM), “about 95%”.
As for `Cc1cc(/C=C/C(=O)/C=C/c2cc(C)no2)on1` [Compound 28, (1E,4E)-1,5-Bis(3-methylisoxazol-5-yl)penta-1,4-dien-3-one], the melting point lay within 167 to 169 °C. This molecule also registered an IC50 in data set [1] of 16 nM. The IC50 in data set [7] came out at 160 nM. Moreover, the IC50 in data set [8] turned out to be 156 nM. The molecule further showed an IC50 in data set [2] of 41 nM. The viability at 1 µM in [3] stood at 28%. In data set [4], this molecule came in with an IC50 of 226 nM. Further, the “survival of MCF-10A cells” value in data set [6] (0.01 μM, five days, FIG. 9) is reported as “about 90%”. For the same molecule, in data set [6] (0.1 μM, five days, FIG. 9), the “survival of MCF-10A cells” value is “about 90%”. For the same molecule, the “survival of MCF-10A cells” value in data set [6] (1 μM, five days, FIG. 9) is given as “about 85%”.

In general, IC50 refers to the concentration that inhibits the measured activity by half. Broadly, the viability is the share of living cells, or the viability signal relative to a control. By melting point is commonly meant the temperature of the solid-liquid transition.
